{
  "source": "patent US3987055A",
  "about": "“Azasteroids compounds and derivatives” (The Board of Regents for the Oklahoma Agricultural & …, priority 1974, dated 1976)",
  "key": {"[1]": {"details": "cited from earlier work"}, "Bacillus subtilis": {"system": "Bacillus subtilis", "details": "as low as; cited from earlier work"}, "[2]": {"details": "oral, rats; cited from earlier work"}, "Escherichia coli B": {"system": "Escherichia coli B", "assay": "inhibition of initiation of growth of Escherichia coli B", "format": "cell-based", "details": "E. coli B", "from_the_text": "(§1) The hydroxybenzindazole (compound 2) delayed (inhibited) the initiation of growth of selected unrelated bacteria when incorporated in the growth medium. The inhibition was dependent on the concentration of the test compound and the nature of the organism. […] Pseudomonas fluorescens NND was not sensitive to the hydroxybenzindazole in the concentrations tested."}, "cells [3]": {"system": "cells", "assay": "binding or adsorption to the cell", "details": "incubated with 20 μg", "from_the_text": "(§2) Thus the compound can be used to destroy undesirable cells without damaging normal cells."}, "Bacillus subtilis W23": {"system": "Bacillus subtilis W23", "assay": "inhibition of growth of Bacillus subtilis W23 in growth medium", "format": "cell-based", "experimental": "as §1\nThe influence of cell mass on the antimicrobial potential of the hydroxybenzindazole was determined using B. subtilis W23. […] Thus, a critical number of molecules must react with the cell to produce inhibition. Experiments were conducted to determine if Mg^+^+, which is an important component of cell membranes, affected the inhibition. Cells of B. subtilis W23 were exposed to 10^-^3 M MgCl2 simultaneously with the test compound or for as long as 15 minutes prior to addition of the hydroxybenzindazole."}, "B. subtilis W23": {"system": "B. subtilis W23", "assay": "antimicrobial activity in combination with selected antibiotics", "format": "cell-based", "experimental": "Several antibiotics act at the cell surface. The antimicrobial activity of the hydroxybenzindazole in combination with selected antibiotics was measured.\nBoth Polymyxin (Pfizer, Inc.) and Circulin (Upjohn Co.) are surface active compounds thought to cause disorganization of the cell membrane leading to a loss of intracellular components. The enhanced antimicrobial activity observed with the combination of hydroxybenzindazole and antibiotics denotes a more pronounced distortion in the cell surface. Thus, much lower concentrations of the compounds can be used in medicinal applications providing an opportunity for toxic compounds to have greater medicinal applicability and use.\nFailure of the mixture of hydroxybenzindazole and chloramphenicol to show an enhanced inhibition of growth could be correlated with the internal site of action of chloramphenicol, which is blockage of the binding of the 30s and 50s ribosomal subunits."}, "cells [4]": {"system": "cells", "assay": "uptake or incorporation of L-serine-3-14C or uracil-2-14C", "format": "cell-based", "details": "60 μg/ml", "from_the_text": "as §2"}, "[5]": {"system": "Pseudomonas fluorescens NND", "assay": "inhibition of growth of Pseudomonas fluorescens NND", "format": "cell-based", "details": "concentrations tested; P. fluorescens NND; listed as hydroxybenzindazole", "from_the_text": "as §1"}, "P. fluorescens NND": {"system": "P. fluorescens NND", "assay": "lysis of cells of P. fluorescens NND", "format": "cell-based, Pseudomonas fluorescens NND", "experimental": "The increased lytic rate was not observed when the benzindazole was added after the cells had reached the maximum stationary phase (10 hours); thus, the compounds must be present during active growth for the cells to show the lytic response. […] This is extremely important in controlling or destroying growth of undesirable cells since if the cells rupture they cannot possibly grow and divide at any future time."}, "rat testis tubules [6]": {"system": "rat testis tubules", "assay": "lysine-U-14C incorporation into protein by rat testis tubules in vitro", "format": "cell-based", "experimental": "(§3) For these investigations the compounds were diluted in a minimal amount of ethanol and further diluted in saline (0.85%) so that the final concentration was 1 mg/ml. The compounds were placed in solution and gassed under N2 and stored at 5° C until used 2 days later for the in vitro incubation studies. Details of the in vitro incubation procedures may be found in Endocrinology 89:791-800 (1971).\nThe effects of the compounds on the incorporation of lysine -U-^14 C into trichloroacetic (TCA) precipitable protein of rat testes was investigated by incubating about 200 mg of teased testis tubules from mature rats in a 25 ml Erlenmeyer flask containing 3 ml of Krebs Ringer bicarbonate buffer (pH 7.4), L-lysine-U-^14 C (0.5 μCi; 0.1mM), glucose (10 mM) and 0.25 ml of the azasteroid to be tested. The flasks were incubated for 1 hour at 33° C under 95% O2 : 5% CO2 and the TCA precipitable protein was isolated and an aliquot used to measure radioactivity.\nCPM = counts per minute. All compounds were tested in a concentration of […]"}, "[7]": {"assay": "effects on testis function: body, testis and seminal vesicle weight", "format": "in vivo, mice (ICR-Swiss adult male)", "details": "average; 0.2 mg per day s.c., 10 days", "experimental": "The compounds as shown in Table 7 were dissolved in a minimal amount of ethanol and diluted in sesame oil (1 mg/ml). After dilution, samples were stored at 5° C in the dark and flushed with N2 every 24 hours. The compounds were injected subcutaneously into adult male mice for a period of 10 days. Each mouse injected received a total dose of 2 mg over the 10 day period or 0.2 mg per day. The mice were random bred males of the ICR-Swiss strain and were used in the study when they reached 75±2 days of age. Mice were maintained in air-conditioned and light-controlled (14 hour light/24 hour) animal quarters and provided with lab food and water ad libitum. Animals were necropsied 24 hours after the last injection. Testes and seminal vesicles were excised, trimmed of adhering tissue and weighed fresh at the nearest one-tenth milligram."}, "[8]": {"system": "osmoplasts (osmotically sensitive cells) of B. subtilis W23", "assay": "lysis of osmoplasts of B. subtilis W23", "format": "cell-based", "details": "stabilized in 0.35 M sucrose", "from_the_text": "as §2"}, "rat testis tubules [9]": {"system": "rat testis tubules", "assay": "glucose oxidation (glucose-U-14C) by rat testis tubules in vitro", "format": "cell-based", "experimental": "as §3\nThe effects of these compounds on glucose oxidation by testis tubules was examined by incubating about 200 mg of teased testis tubules from mature rats in a 25 ml Erlenmeyer flask containing 3 ml of Krebs Ringer bicarbonate buffer (pH 7.4), D-glucose-U-^14 C (0.5 μCi; 10mM) and 0.25 ml of the azasteroid (1 mg/ml) to be tested. The flasks were incubated for 2 hours at 33° C under 95% O2 :5% CO2. The reaction was terminated by adding 0.25 ml of 5 N H2 SO4. Carbon dioxide was trapped in 0.25 ml of hydroxide of Hyamine. The radioactivity present in the Hyamine was determined by liquid scintillation spectrometry. This table includes a detailed summary of the results obtained and an average for each compound. […] Thus, the compounds have potential for antifertility activity in the control of wild rodent populations and possibly stray animals such as dogs and cats.\nCPM = counts per minute. Glucose-U-^14 C activity was 0.5 millicurie.\nAll compounds were tested in a concentration of 250 mg per flask."}, "[10]": {"details": "cited from earlier work", "remark": "listed apart in the source"}, "[11]": {"details": "individual flask, 250 mg per flask (so in the source), 1 hour, 33° C"}, "[12]": {"details": "individual flask, 250 mg per flask (so in the source), 2 hours, 33° C"}},
  "note": "“And” between values parts separate entries of the source, which are not always exact repeats. Equal entries are not always repeated. “Also recorded” adds a separate entry of the source.",
  "data": [
    {"compound": "COc1ccc2c(c1)CC[C@@H]1[C@@H]2CC[C@]2(C)C(=O)NC[C@@H]12", "note": "[0-methyl ether of 16-azaestrone]", "values": [
      {"measurement": "estrogenic activity relative to parent estrone", "setting": "[1]", "value": "less than 1.01%"}
    ]},
    {"compound": "CC(C)CCC[C@@H](C)[C@H]1CC[C@H]2[C@@H]3CC=C4N(CC[N+](C)(C)C)C(=O)CC[C@]4(C)[C@H]3CC[C@]12C", "note": "[4-Dimethylaminoethyl-4-aza-5-cholesten-3-one methiodide]", "values": [
      {"measurement": "concentration that irreversibly inhibits growth of Bacillus subtilis cultures", "setting": "Bacillus subtilis", "value": 1, "unit": "µg/mL"}
    ]},
    {"compound": "C[C@]12Cc3cn[nH]c3C[C@@H]1CC[C@@H]1[C@@H]2CC[C@@]2(C)[C@H]1CC[C@]2(C)O", "note": "[17-Hydroxy-17 α-methylandrostano[3,2]-μ pyrazole]", "values": [
      {"measurement": "antiovulatory activity relative to norethisterone", "setting": "[2]", "value": "one-fifth of that observed for norethisterone"}
    ]},
    {"compound": "Oc1ccc2c(c1)CCc1cn[nH]c1-2", "note": "[Compound 2, 4,5-Dihydro-1H-benz[g]indazol-7-ol]", "values": [
      {"measurement": "growth inhibition at lower concentration", "setting": "Escherichia coli B; 46 μg/ml", "value": "only slight inhibition"},
      {"measurement": "increased lag in the initiation of growth", "setting": "Escherichia coli B; 86 μg/ml", "value": "approximately 3 hours"},
      {"measurement": "amount bound or adsorbed to the cell", "setting": "cells [3]", "value": "approximately 1 μg"},
      {"measurement": "growth inhibition at lower concentration", "setting": "Bacillus subtilis W23; 46 μg/ml, B. subtilis W23", "value": "only slight inhibition"},
      {"measurement": "increased lag in the initiation of growth", "setting": "Bacillus subtilis W23; 86 μg/ml, B. subtilis W23", "value": "approximately 3 hours"},
      {"measurement": "influence of Mg++ on the inhibition", "setting": "Bacillus subtilis W23; 10^-3 M MgCl2, simultaneously or up to 15 minutes prior", "value": "did not influence the inhibition"},
      {"measurement": "influence of cell mass on extent of inhibition", "setting": "Bacillus subtilis W23; B. subtilis W23, increasing inoculum cell mass", "value": "the extent of inhibition was diminished as the cell mass of the inoculum was increased"},
      {"measurement": "inhibition of growth, tested separately", "setting": "B. subtilis W23; alone, B. subtilis W23", "value": "very slight inhibition of growth"},
      {"measurement": "enhanced inhibition in combination with chloramphenicol", "setting": "B. subtilis W23; with chloramphenicol", "value": "enhanced inhibition was not observed"},
      {"measurement": "inhibition of growth in combination with penicillin", "setting": "B. subtilis W23; with penicillin, B. subtilis W23", "value": "pronounced inhibition"},
      {"measurement": "inhibition of uptake or incorporation of L-serine-3-14C or uracil-2-14C", "setting": "cells [4]", "value": "did not inhibit uptake or incorporation"},
      {"measurement": "sensitivity / influence on growth", "setting": "[5]", "value": "not sensitive; also recorded: did not influence the growth"},
      {"measurement": "dependence of extent of lysis on concentration", "setting": "P. fluorescens NND; P. fluorescens NND", "value": "proportional to the benzindazole concentration"},
      {"measurement": "increased lytic rate when added after maximum stationary phase", "setting": "P. fluorescens NND; added after 10 hours", "value": "not observed"},
      {"measurement": "cell population lysed", "setting": "P. fluorescens NND; cells grown in presence of compound", "value": "approximately 95%"},
      {"measurement": "AVERAGE OF TWO FLASK lysine incorporation", "setting": "rat testis tubules [6]; average of two flasks", "value": 814, "unit": "CPM/100 mg tissue"},
      {"measurement": "protein synthesis by teased testis tubules", "setting": "rat testis tubules [6]; in words", "value": "depress protein synthesis"},
      {"measurement": "lysine incorporation into protein per 100 mg", "setting": "rat testis tubules [6]; [11]", "value": "1,000 CPM/100 mg and 629 CPM/100 mg"},
      {"measurement": "lysine incorporation into protein per flask", "setting": "rat testis tubules [6]; [11]", "value": "2,000 CPM/FLASK and 1,200 CPM/FLASK"},
      {"measurement": "Body Weight", "setting": "[7]", "value": 35.7, "unit": "g"},
      {"measurement": "Mg Testes Per g Body Wt.", "setting": "[7]", "value": 6.73, "unit": "Mg per g"},
      {"measurement": "Seminal Vesicle weight", "setting": "[7]", "value": 87.3, "unit": "mg"},
      {"measurement": "Testes Paired weight", "setting": "[7]", "value": 242.0, "unit": "mg"},
      {"measurement": "lysis of osmoplasts", "setting": "[8]", "value": "did not produce lysis"},
      {"measurement": "AVERAGE glucose oxidation", "setting": "rat testis tubules [9]; average of flasks", "value": "3,756 CPM/100 mg TISSUE"},
      {"measurement": "depression of glucose oxidation in vitro", "setting": "rat testis tubules [9]; in words", "value": "depressed glucose oxidation in vitro more than compounds 4 c and 11b"},
      {"measurement": "GLUCOSE OXIDATION per 100 mg", "setting": "rat testis tubules [9]; [12]", "value": "3,354 CPM/100 mg and 4,159 CPM/100 mg"},
      {"measurement": "GLUCOSE OXIDATION per flask", "setting": "rat testis tubules [9]; [12]", "value": "6,876 CPM/FLASK and 8,557 CPM/FLASK"},
      {"measurement": "% DEVIATION FROM CONTROL, glucose oxidation", "setting": "rat testis tubules [9]; versus saline, 120 min", "value": -63.6, "unit": "%"}
    ]},
    {"compound": "(3,2-c)-2'-phenylpyrazole of 9α-fluoro-6,16α-dimethyl-Δ^6 -hydrocortisone", "values": [
      {"measurement": "anti-inflammatory potency relative to hydrocortisone", "setting": "[10]", "value": "over 2000 times"}
    ]}
  ]
}
